Measured values taken from US12552796B2, “EED inhibitor, and preparation method therefor and use thereof” (SHANGHAITECH UNIVERSITY, priority 2019, dated 2026).
Like-named read-outs stand apart in the source and are kept apart here.

Columns and labels:
[1] = tested on: cellular H3K27 methylation; assay: Cellular H3K27 methylation assay (Western blot of H3K27me3 in HeLa cells); assay type: cell-based; conditions: Homo sapiens, 72 h, read-out: PD IC50
[2] = tested on: WSU-DLCL2 cells; assay: Cell proliferation assay, WSU-DLCL2; assay type: cell-based; conditions: Homo sapiens
Method: (§1) Human B-cell non-Hodgkin's lymphoma cells WSU-DLCL2, Karpas422 and Pfeiffer were cultured in cell culture flasks in a sterile incubator with 95% relative humidity and 5% CO2 at 37° C. The medium was RPMI-1640 (Gibco, product No. 31800022) containing 15% fetal bovine serum (FBS, Gibco, product No. 10099141) and 0.1% penicillin/streptomycin solution (P/S). In order to assay the effects of compounds on cell proliferation, cells in exponential growth phase were seeded into a 12-well plate (Nunc, product No. 150628) with 1 mL of medium per well, wherein WSU-DLCL2 and Karpas422 were seeded at a density of 1×10^5 cells/well, and Pfeiffer was seeded at a density of 2×10^5 cells/well. At the same time, different concentrations of compounds were added to the wells that had seeded with cells (6 concentrations were set for each compound at 3-fold serial dilution), and the final concentration of DMSO was 0.1%. After that, the number of viable cells was determined by Vi-CELL (Beckman Coulter) for WSU-DLCL2 and Pfeiffer every 3 days, and for Karpas422 on days 4, 7, and 11, respectively. The cells counted each time were seeded into a new 12-well plate at the same density, and supplemented with fresh medium to 1 mL. Different concentrations of compounds were added at the same time. WSU-DLCL2 and Pfeiffer were cultured to the 9th day, and Karpas422 was cultured to the 14th day. Cell data were collected uniformly, and analyzed with GraphPad prisim5. Dose curves were fitted, and IC50 values of the assay compounds were obtained.

[3] = tested on: Karpas422 cells; assay: Cell proliferation assay, Karpas422; assay type: cell-based; conditions: Homo sapiens
Method: as §1

[4] = Pharmacokinetic study in rats; assay type: in vivo, SD rats; conditions: rat; for AUC(0-inf) / Cmax / Tmax / clearance / half-life / MRT inf: male, SD, plasma; for MRT inf: read-out: MRT0-∞
Method: Six SPF SD rats, male, weighing 180-220 g, were randomly divided into 2 groups with 3 rats in each group. The compounds of the present disclosure were administered by oral gavage (PO) and intravenous injection (IV), respectively, and the assay compounds were formulated with a vehicle (5% DMSO+10% Solutol+85% pH 4.65 Acetate buffer).
Dosage: 1 mg/kg for intravenous injection and 2 mg/kg for oral administration.
Dosing volume: 5 mL/kg for intravenous injection and 10 mL/kg for oral administration.
The oral administration group was fasted overnight (10-14 h) before the assay, and drank water freely. After 4 hours of administration, they were fed uniformly. They were weighed before administration, and the dosage was calculated according to the body weight.
Intravenous administration: 0.083, 0.25, 0.5, 1, 2, 4, 6, 8, 10 and 24 h after administration;
Oral gavage administration: 0.25, 0.5, 1, 2, 4, 6, 8, 10, 12 and 24 h after administration;
Blood was collected from the jugular vein of rats at the above set time points, about 0.2 mL each time. The blood was anticoagulated with heparin sodium, placed on ice after collection, and centrifuged within 1 hour to separate the plasma (centrifugation conditions: 6800 g, 6 minutes, 2-8° C.). Plasma samples were stored in a −80° C. freezer prior to analysis.
The concentration of each compound in rat plasma was determined by LC/MS/MS method.
Through the plasma drug concentration data at different time points, pharmacokinetic parameters were calculated using Phoenix WinNonlin 7.0, thereby providing parameters such as AUC0-t, AUC0-∞, MRT0-∞, Cmax, Tmax, and T1/2 and mean and standard deviation thereof.

[5] = tested on: Pfeiffer cells; assay: Cell proliferation assay, Pfeiffer; assay type: cell-based; conditions: Homo sapiens, cultured to the 9th day, read-out: Anti-proliferation IC50
Method: as §1

[6] = HeLa cells, 3 days, H3K27me3 level by Western blot
[7] = WSUDLCL2, WSU-DLCL2 cells, cultured to the 9th day, read-out: Anti-proliferation IC50
[8] = KARPAS-422, Karpas422 cells, cultured to the 14th day, read-out: Anti-proliferation IC50
[9] = WSUDLCL2, read-out: Anti-proliferation IC50

CS(=O)(=O)c1ccc(-c2cnc(NCc3ccco3)n3cnnc23)cc1 [EED226, reference compound]
IC50 [1, 6]: 220 nM
IC50 [2, 7]: 131 nM
IC50 [3, 8]: 123 nM

Fc1ccc2c(c1CNc1ncc(OC3CCC3)c3nncn13)CCO2 [HJM-017]
IC50 [1, 6]: 26.3 nM
IC50 [2, 7]: 113 nM

Fc1ccc2c(c1CNc1ncc(OCC3CC3)c3nncn13)CCO2 [HJM-019]
IC50 [1, 6]: 29.4 nM
IC50 [2, 7]: 72 nM

Fc1ccc2c(c1CNc1ncc(OCC3CCOCC3)c3nncn13)CCO2 [HJM-020]
IC50 [1, 6]: 39.8 nM
IC50 [2, 7]: 48.5 nM

CN(C)C(=O)c1cnc(NCc2c(F)ccc3c2CCO3)n2cnnc12 [HJM-025]
IC50 ([1]; HeLa): 43.3 nM
IC50 [2, 9]: 26.4 nM

O=C(c1cnc(NCc2c(F)ccc3c2CCO3)n2cnnc12)N1CCOCC1 [HJM-027]
IC50 [1, 6]: 89.5 nM
IC50 [2, 7]: 58 nM

O=C(Nc1cnc(NCc2c(F)ccc3c2CCO3)n2cnnc12)C1CC1 [HJM-030]
IC50 [1, 6]: 26.7 nM
IC50 [2, 7]: 39.6 nM
AUC(0-inf) ([4]; IV, 1 mg/kg): 1230 ng·h/mL
Cmax ([4]; IV, 1 mg/kg): 1500 ng/mL
Tmax ([4]; IV, 1 mg/kg): 0.08 h
clearance ([4]; IV, 1 mg/kg): 13.6 mL/min/kg
half-life ([4]; IV, 1 mg/kg): 1.7 h
MRT inf ([4]; IV, 1 mg/kg): 1.02 h
AUC(0-inf) ([4]; PO, 2 mg/kg): 1450 ng·h/mL
Cmax ([4]; PO, 2 mg/kg): 394 ng/mL
Tmax ([4]; PO, 2 mg/kg): 0.42 h
half-life ([4]; PO, 2 mg/kg): 1.32 h
MRT inf ([4]; PO, 2 mg/kg): 2.93 h
F ([4]; PO, 2 mg/kg): 58.53%
IC50 [3, 8]: 42.1 nM

O=C(CC1CC1)Nc1cnc(NCc2c(F)ccc3c2CCO3)n2cnnc12 [HJM-031]
IC50 [1, 6]: 39.6 nM
IC50 [2, 7]: 80.6 nM

O=C(CCC(F)(F)F)Nc1cnc(NCc2c(F)ccc3c2CCO3)n2cnnc12 [HJM-033]
IC50 [1, 6]: 25.9 nM
IC50 [2, 7]: 94.7 nM

O=C(Nc1cnc(NCc2c(F)ccc3c2CCO3)n2cnnc12)C1CCCO1 (stereo not drawn) [HJM-037]
IC50 [1, 6]: 64.7 nM
IC50 [2, 7]: 115 nM

O=C(Nc1cnc(NCc2c(F)ccc3c2CCO3)n2cnnc12)c1ccccc1 [HJM-042]
IC50 [1, 6]: 60.5 nM
IC50 [2, 7]: 82 nM

O=C1CCCN1c1cnc(NCc2c(F)ccc3c2CCO3)n2cnnc12 [HJM-067]
IC50 ([1]; HeLa): 21.1 nM
IC50 [2, 9]: 29.4 nM
AUC(0-inf) ([4]; IV, 1 mg/kg): 695 ng·h/mL
Cmax ([4]; IV, 1 mg/kg): 946 ng/mL
Tmax ([4]; IV, 1 mg/kg): 0.08 h
clearance ([4]; IV, 1 mg/kg): 24.1 mL/min/kg
half-life ([4]; IV, 1 mg/kg): 3 h
MRT inf ([4]; IV, 1 mg/kg): 0.8 h
AUC(0-inf) ([4]; PO, 2 mg/kg): 846 ng·h/mL
Cmax ([4]; PO, 2 mg/kg): 306 ng/mL
Tmax ([4]; PO, 2 mg/kg): 0.83 h
half-life ([4]; PO, 2 mg/kg): 3.03 h
MRT inf ([4]; PO, 2 mg/kg): 2.7 h
F ([4]; PO, 2 mg/kg): 60.72%
IC50 ([3]; KARPAS-422, read-out: Anti-proliferation IC50): 51 nM

CC(F)C(=O)Nc1cnc(NCc2c(F)ccc3c2CCO3)n2cnnc12 (stereo not drawn) [HJM-072]
IC50 [1, 6]: 30 nM
IC50 [2, 7]: 120 nM

CN(C(=O)CC1CC1)c1cnc(NCc2c(F)ccc3c2CCO3)n2cnnc12 [HJM-073]
IC50 [1, 6]: 39.3 nM
IC50 [2, 7]: 29.4 nM

CCN(C(=O)C1CC1)c1cnc(NCc2c(F)ccc3c2CCO3)n2cnnc12 [HJM-079]
IC50 [1, 6]: 15.3 nM
IC50 [2, 7]: 36.8 nM
AUC(0-inf) ([4]; IV, 1 mg/kg): 857 ng·h/mL
Cmax ([4]; IV, 1 mg/kg): 750 ng/mL
Tmax ([4]; IV, 1 mg/kg): 0.08 h
clearance ([4]; IV, 1 mg/kg): 19.5 mL/min/kg
half-life ([4]; IV, 1 mg/kg): 0.92 h
MRT inf ([4]; IV, 1 mg/kg): 1.1 h
AUC(0-inf) ([4]; PO, 2 mg/kg): 706 ng·h/mL
Cmax ([4]; PO, 2 mg/kg): 222 ng/mL
Tmax ([4]; PO, 2 mg/kg): 0.42 h
half-life ([4]; PO, 2 mg/kg): 1.72 h
MRT inf ([4]; PO, 2 mg/kg): 2.94 h
F ([4]; PO, 2 mg/kg): 40.87%

CN(C)CCC(=O)Nc1cnc(NCc2c(F)ccc3c2CCO3)n2cnnc12 [HJM-082]
IC50 [1, 6]: 29.9 nM
IC50 [2, 7]: 124 nM

COCC(=O)Nc1cnc(NCc2c(F)ccc3c2CCO3)n2cnnc12 [HJM-083]
IC50 [1, 6]: 28.5 nM
IC50 [2, 7]: 28 nM

COCCOCC(=O)Nc1cnc(NCc2c(F)ccc3c2CCO3)n2cnnc12 [HJM-084]
IC50 [1, 6]: 84 nM
IC50 [2, 7]: 86.9 nM

Fc1ccc2c(c1CNc1ncc(OC3COC3)c3nncn13)CCO2 [HJM-100]
IC50 [1, 6]: 54.3 nM
IC50 [2, 7]: 54.8 nM

Fc1ccc2c(c1CNc1ncc(OCC3CCCO3)c3nncn13)CCO2 (stereo not drawn) [HJM-101]
IC50 [1, 6]: 39.5 nM
IC50 [2, 7]: 52.6 nM

Fc1ccc2c(c1CNc1ncc(OCC3CCOC3)c3nncn13)CCO2 (stereo not drawn) [HJM-102]
IC50 [1, 6]: 32.7 nM
IC50 [2, 7]: 25.1 nM
IC50 [5]: 47.4 nM
AUC(0-inf) ([4]; IV, 1 mg/kg): 1140 ng·h/mL
Cmax ([4]; IV, 1 mg/kg): 1180 ng/mL
Tmax ([4]; IV, 1 mg/kg): 0.08 h
clearance ([4]; IV, 1 mg/kg): 14.8 mL/min/kg
half-life ([4]; IV, 1 mg/kg): 1.98 h
MRT inf ([4]; IV, 1 mg/kg): 1.4 h
AUC(0-inf) ([4]; PO, 2 mg/kg): 1890 ng·h/mL
Cmax ([4]; PO, 2 mg/kg): 369 ng/mL
Tmax ([4]; PO, 2 mg/kg): 1.5 h
half-life ([4]; PO, 2 mg/kg): 1.68 h
MRT inf ([4]; PO, 2 mg/kg): 3.55 h
F ([4]; PO, 2 mg/kg): 82.62%
IC50 [3, 8]: 99.3 nM

Fc1ccc2c(c1CNc1ncc(OCC3CCO3)c3nncn13)CCO2 (stereo not drawn) [HJM-103]
IC50 [1, 6]: 94.2 nM
IC50 [2, 7]: 148 nM

CC1(COc2cnc(NCc3c(F)ccc4c3CCO4)n3cnnc23)COC1 [HJM-105]
IC50 [1, 6]: 29.4 nM
IC50 [2, 7]: 35.4 nM
AUC(0-inf) ([4]; IV, 1 mg/kg): 1910 ng·h/mL
Cmax ([4]; IV, 1 mg/kg): 1600 ng/mL
Tmax ([4]; IV, 1 mg/kg): 0.08 h
clearance ([4]; IV, 1 mg/kg): 8.83 mL/min/kg
half-life ([4]; IV, 1 mg/kg): 1.82 h
MRT inf ([4]; IV, 1 mg/kg): 1.56 h
AUC(0-inf) ([4]; PO, 2 mg/kg): 1790 ng·h/mL
Cmax ([4]; PO, 2 mg/kg): 342 ng/mL
Tmax ([4]; PO, 2 mg/kg): 2.83 h
half-life ([4]; PO, 2 mg/kg): 1.41 h
MRT inf ([4]; PO, 2 mg/kg): 3.29 h
F ([4]; PO, 2 mg/kg): 47.22%

CC(Oc1cnc(NCc2c(F)ccc3c2CCO3)n2cnnc12)C1COC1 (stereo not drawn) [HJM-106]
IC50 [1, 6]: 57.7 nM
IC50 [2, 7]: 39.8 nM

CN1CC(Oc2cnc(NCc3c(F)ccc4c3CCO4)n3cnnc23)C1 [HJM-114]
IC50 [1, 6]: 68 nM
IC50 [2, 7]: 211 nM

COCCOc1cnc(NCc2c(F)ccc3c2CCO3)n2cnnc12 [HJM-137]
IC50 [1, 6]: 62 nM
IC50 [2, 7]: 51.4 nM

COCCCOc1cnc(NCc2c(F)ccc3c2CCO3)n2cnnc12 [HJM-138]
IC50 [1, 6]: 49.8 nM
IC50 [2, 7]: 43.2 nM

N#CCOc1cnc(NCc2c(F)ccc3c2CCO3)n2cnnc12 [HJM-145]
IC50 [1, 6]: 32.8 nM
IC50 [2, 7]: 47.3 nM

COCCN(C)C(=O)c1cnc(NCc2c(F)ccc3c2CCO3)n2cnnc12 [HJM-152]
IC50 [1, 6]: 73.2 nM
IC50 [2, 7]: 106 nM
